# According to patent publication US20240425529A1, “BORIC ACID DERIVATIVE” (SHOUYAO HOLDINGS (BEIJING) CO., LTD., priority 2021, published 2024):
# Legend:
# β5 = biological target: T1, β5 (Homo sapiens, UniProt P28074); assay: Enzymatic inhibitory activity on β5 (HEK-293 cell lysate, Ac-WLA-AMC substrate); format: biochemical; details: 1 hour pre-incubation
# T1 construct: using HEK-293 cell lysate as the enzyme source of D5; endogenous in cells; host or cells: HEK-293 (human embryonic kidney cells)
# Excerpt: β5 is a catalytic subunit of immunoproteasomes. In this experiment, an enzymatic detection platform was established using its hydrolytic enzyme activity and used for compound activity detection. Using Ac-WLA-AMC (Bonston Biochem, Cat #5-330) as a substrate for D5, the amount of fluorescent group AMC (7-amino-4-methylcoumarin) released after hydrolysis can reflect the enzymatic activity. […] We established an enzymatic detection method for compound inhibition on D5 using HEK-293 cell lysate as the enzyme source of D5 and detected the compound inhibitory activity (half inhibitory concentration, IC50). The enzymatic inhibitory activity of compounds against D5 was used as a measure index of compound selectivity.
# (§1) HEK-293 cells were cultured in a 75 cm^2 cell culture flask (Corning) (37° C., 95% air, and 5% CO2) with DMEM (Biological Industries) medium containing 10% fetal bovine serum (Biological Industries) and 1% Pen Strep (Gibco) and passaged 2-3 times one week. 1×10^7 HEK-293 cells were collected, resuspended in 1 ml of PBS (Solarbio), and centrifuged at 3000 rpm for 5 minutes. The supernatant was aspirated off. The cells were resuspended in 500 μl of lysis buffer (20 mM Tris, pH 8.0, 5 mM EDTA, plus Protease inhibitor (1:1000) and Phosphatase Inhibitor (1:100) when used) and left on ice for 30 minutes. The cells were broken by supersonic technique, 0.5 S on, 0.5 S off, for 2.5 S. The centrifuge was performed at 12000 rpm, 4° C. for 10 minutes. The supernatant was the cell lysate and protein quantification was performed using the BCA method (Thermo, #23225).
# Compounds were diluted in a 5-fold gradient with 100% DMSO for a total of 9 concentrations. 2 W for each concentration was added to a 48-μl reaction buffer (20 mM Tris, pH 8.0, 0.5 mM EDTA) and mixed well as 4* compound (final concentrations: 100000, 20000, 4000, 800, 160, 32, 6.4, 1.28, and 0 nM) for later use. A reaction buffer was used to prepare 4*HEK-293 cell lysate at a final concentration of 25 ng/μl and 2*Ac-WLA-AMC at a final concentration of 20 μM. 5 W of 4* compound was added to a 384-well plate (OptiPlate-384, purchased from PerkinElmer), added with 5 W of 4*HEK-293 cell lysate, centrifuged, and reacted in an incubator at 23° C. for 1 hour. 10 W of 2* Ac-WLA-AMC was added and the reaction was started by centrifugation at 23° C. in the dark for 2 hours. After completion of the reaction, the signal value (excitation wavelength 345 nm/emission wavelength 445 nm) was read on the CLARIO star^Plus (purchased from BMG LRBTECH). Enzyme activity was determined at 9 concentrations for each compound, and data were processed using the GraphPad Prism software to calculate the half inhibitory concentration of the compound on D5, i.e. the IC50 value.
# LMP7 [1] = biological target: T2, LMP7 (Homo sapiens, UniProt P28062); assay: Cytological inhibitory activity on LMP7 in MOLT-4 cells; format: cell-based; details: incubation for 2 hours with compound, read-out: Cytological activity data LMP7 Activity (MOLT-4Cell)
# T2 construct: using MOLT-4 cell lysate as the enzyme source of LMP7; endogenous in cells; host or cells: MOLT-4 (human acute lymphoblastic leukemia cells)
# Experimental: MOLT-4 are human acute lymphoblastic leukemia cells and have been identified as cells with high expression of LMP7. In this experiment, the compounds were pre-incubated with MOLT-4, and Ac-ANW-AMC (BonstonBiochem, Cat #S-320) was used as the substrate of LMP7 to establish the detection method for the enzymatic activity of LMP7 in cells and detect the compound inhibitory activity (half inhibitory concentration, IC50).
# Cells were plated in a 24-well plate (Corning) at a concentration of 1.5×10^5/ml per well. The next day compounds were prepared and diluted in a 5-fold gradient from 2 mM in 100% DMSO for a total of 8 concentrations. 2 μl for each concentration of the compound was added to a 1-ml cell culture medium, supplemented with 1 ml of RPMI-1640 only (final FBS concentration 5%, v/v). The compounds were mixed with the cells. After incubation for 2 hours in the incubator, the cells were centrifuged at 2000 rpm for 8 minutes to discard the supernatant. The cells were washed once with 2 ml PBS (Solarbio), and centrifuged again to discard the supernatant. The cells were resuspended in 100 μl of lysis buffer (20 mM Tris, pH 8.0, 5 mM EDTA, plus Protease inhibitor (1: 100) and Phosphatase Inhibitor (1:100) when used) and left in a 4° C. refrigerator for 45 minutes.
# After 2 min. of centrifuge at 2000 rpm, the lysate was transferred from the 24-well plate to a 96-well plate, and centrifuged at 2000 rpm, 4° C., for 15 min. The supernatant was the lysate. Protein quantification was performed using the BCA method (Thermo, #23225). A 2* lysate was prepared with the reaction buffer (20 mM Tris, pH 8.0, 0.5 mM EDTA) at a final concentration of 20 ng/μl. 2* Ac-ANW-AMC was prepared with the reaction buffer at a final concentration of 100 μM. 10 µl of 2* lysate was added to a 384-well plate (OptiPlate-384, purchased from PerkinElmer), and added with 10 W of 2* Ac-ANW-AMC. The reaction was started by centrifugation at 23° C. in the dark for 1 hour. After completion of the reaction, the signal value (excitation wavelength 345 nm/emission wavelength 445 nm) was read on the CLARIO starPlus (purchased from BMG LRBTECH). Enzyme activity was determined at 8 concentrations for each compound, and data were processed using the GraphPad Prism software to calculate the half inhibitory concentration of the compound on LMP7 hydrolase in MOLT-4 cells, i.e. the IC50 value.
# LMP7 [2] = biological target: T2, LMP7; assay: Enzymatic inhibitory activity on LMP7 (MOLT-4 cell lysate, Ac-ANW-AMC substrate); format: biochemical; details: 1 hour pre-incubation
# Excerpt: LMP7 is a catalytic subunit of immunoproteasomes. In this experiment, an enzymatic detection platform was established using its hydrolytic enzyme activity and used for compound activity detection. Using Ac-ANW-AMC (Bonston Biochem, Cat #S-320) as a substrate for LMP7, the amount of fluorescent group AMC (7-amino-4-methylcoumarin) released after hydrolysis can reflect the enzymatic activity. MOLT-4 cells are human acute lymphoblastic leukemia cells and have been identified as cells with high expression of LMP7. We established an enzymatic detection method for compound inhibition on LMP7 using MOLT-4 cell lysate as the enzyme source of LMP7 and detected the compound inhibitory activity (half inhibitory concentration, IC50).
# as §1, with “MOLT-4 cells were” for “HEK-293 cells were”, “CO2) with RPMI-1640 (Biological Industries)” for “CO2) with DMEM (Biological Industries)”, “week. 1×10^7 MOLT-4 cells were” for “week. 1×10^7 HEK-293 cells were”, “was performed by using the” for “was performed using the”
# Compounds were diluted in a 5-fold gradient with 100% DMSO for a total of 9 concentrations: 2 W for each concentration was added to a 48-μl reaction buffer (20 mM Tris, pH 8.0, 0.5 mM EDTA) and mixed well as 4* compound (final concentrations: 2000, 400, 80, 16, 3.2, 0.64, 0.128, 0.0256, and 0 nM) for later use. A reaction buffer was used to prepare 4* MOLT-4 cell lysate at a final concentration of 20 ng/μl and 2*Ac-ANW-AMC at a final concentration of 100 µM. 5 μl of 4* compound was added to a 384-well plate (OptiPlate-384, purchased from PerkinElmer), added with 5 W of 4* cell lysate, centrifuged, and reacted in an incubator at 23° C. for 1 hour. 10 W of 2* Ac-ANW-AMC was added and the reaction was started by centrifugation at 23° C. in the dark for 2 hours. After completion of the reaction, the signal value (excitation wavelength 345 nm/emission wavelength 445 nm) was read on the CLARIO star^Plus (purchased from BMG LRBTECH). Enzyme activity was determined at 9 concentrations for each compound, and data were processed using the GraphPad Prism software to calculate the half inhibitory concentration of the compound on LMP7, i.e. the IC50 value.
IC50 (β5),IC50 (LMP7 [1]),IC50 (LMP7 [2]),SMILES
132 nM,29.2 nM,7.46 nM,"O=C(Nc1ncc(F)s1)C(=O)N[C@@H](Cc1coc2ccccc12)B(O)O [Ex. 34, (R)-(2-(benzofuran-3-yl)-1-(2-oxo-2-((5-fluorothiazol-2-yl)amino)acetamido)ethyl)boronic acid]"
24.6 nM,8.77 nM,5.61 nM,"O=C(Nc1cccc2c1OCCO2)C(=O)N[C@@H](Cc1coc2ccccc12)B(O)O [Ex. 30, (R)-(2-(benzofuran-3-yl)-1-(2-oxo-2-((2,3-dihydrobenzo[b][1,4]dioxin-5-yl)amino)acetamido)ethyl)boronic acid]"
74.6 nM,3.88 nM,3.08 nM,"CC1(C)[C@@H]2C[C@H]3OB([C@H](Cc4coc5ccccc45)NC(=O)C(=O)N[C@@H]4C[C@H]5CC[C@@H]4O5)O[C@@]3(C)[C@H]1C2 [Ex. 51, ((R)-1-(2-(((1S,2R,4R)-7-oxabicyclo[2.2.1]heptan-2-yl)amino)-2-oxoacetamido)-2-(benzofuran-3-yl)ethyl)boronic acid (1S,2S,3R,5S)-(+)-pinane-2,3-diol ester]"
54.5 nM,19.5 nM,3.14 nM,"O=C(Nc1ncc(Cl)s1)C(=O)N[C@@H](Cc1coc2ccccc12)B(O)O [Ex. 36, (R)-(2-(benzofuran-3-yl)-1-(2-oxo-2-((5-chlorothiazol-2-yl)amino)acetamido)ethyl)boronic acid]"
38.4 nM,13.6 nM,1.99 nM,"CC1(C)[C@@H]2C[C@H]3OB([C@H](Cc4coc5ccccc45)NC(=O)C(=O)Nc4ncc(Cl)s4)O[C@@]3(C)[C@H]1C2 [Ex. 35, (R)-(2-(benzofuran-3-yl)-1-(2-oxo-2-((5-chlorothiazol-2-yl)amino)acetamido)ethyl)boronic acid (1S,2S,3R,5S)-(+)-pinane-2,3-diol ester]"
84.1 nM,5.45 nM,0.95 nM,"Cn1cccc(NC(=O)C(=O)N[C@@H](Cc2coc3ccccc23)B(O)O)c1=O [Ex. 58, (R)-(2-(benzofuran-3-yl)-1-(2-oxo-2-((1-methyl-2-oxo-1,2-dihydropyridin-3-yl)amino)acetamido)ethyl)boronic acid]"
30.1 nM,0.8 nM,2.6 nM,"CC1(C)[C@@H]2C[C@H]3OB([C@H](Cc4coc5ccccc45)NC(=O)C(=O)Nc4cnccn4)O[C@@]3(C)[C@H]1C2 [Ex. 17, (R)-(2-(benzofuran-3-yl)-1-(2-oxo-2-(pyrazin-2-ylamino)acetamido)ethyl) boronic acid (1S,2S,3R,5S)-(+)-pinane-2,3-diol ester]"
140 nM,4.03 nM,1.32 nM,"Cn1cccc(NC(=O)C(=O)N[C@@H](Cc2coc3ccccc23)B2O[C@@H]3C[C@@H]4C[C@@H](C4(C)C)[C@]3(C)O2)c1=O [Ex. 57, (R)-(2-(benzofuran-3-yl)-1-(2-oxo-2-((1-methyl-2-oxo-1,2-dihydropyridin-3-yl)amino)acetamido)ethyl)boronic acid (1S,2S,3R,5S)-(+)-pinane-2,3-diol ester]"
23.7 nM,5.33 nM,0.89 nM,"CC1(C)[C@@H]2C[C@H]3OB([C@H](Cc4coc5ccccc45)NC(=O)C(=O)Nc4ccc(F)cc4F)O[C@@]3(C)[C@H]1C2 [Ex. 54, (R)-(2-(benzofuran-3-yl)-1-(2-oxo-2-(2,4-difluorophenylamino)acetamido)ethyl)boronic acid (1S,2S,3R,5S)-(+)-pinane-2,3-diol ester]"
88.4 nM,6.39 nM,7.48 nM,"O=C(N[C@@H](Cc1coc2ccccc12)B(O)O)C(=O)N1CCCC(F)(F)C1 [Ex. 56, (R)-(2-(benzofuran-3-yl)-1-(2-oxo-2-(3,3-difluoropiperidin-1-yl)acetamido)ethyl)boronic acid]"
26 nM,0.91 nM,1.5 nM,O=C(Nc1cnccn1)C(=O)N[C@@H](Cc1coc2ccccc12)B1OCCCO1 [Ex. 70]
19.4 nM,0.73 nM,4.86 nM,"COc1ccc2nc(NC(=O)C(=O)N[C@@H](Cc3coc4ccccc34)B(O)O)sc2c1 [Ex. 26, (R)-(2-(benzofuran-3-yl)-1-(2-oxo-2-((6-methoxybenzo[d]thiazol-2-yl)amino)acetamido)ethyl)boronic acid]"
